Experimental data taken from patent US20130158075A1, “HETEROCYCLIC COMPOUNDS AS DGAT1 INHIBITORS” (PIRAMAL ENTERPRISES LIMITED, priority 2010, published 2013).

Columns and labels:
[1] = target: T1, hDGAT1 (Homo sapiens, UniProt O75907); experiment: In-vitro DGAT1 assay with hDGAT1 microsomes from Sf9 cells (14C oleoyl CoA, scintillation counting); format: biochemical; conditions: read-out: Percentage inhibition of hDGAT1
T1 construct: made in house; host or cells: Sf9 insect cells (baculovirus); microsomal fraction
T1 sequence (O75907 1-488): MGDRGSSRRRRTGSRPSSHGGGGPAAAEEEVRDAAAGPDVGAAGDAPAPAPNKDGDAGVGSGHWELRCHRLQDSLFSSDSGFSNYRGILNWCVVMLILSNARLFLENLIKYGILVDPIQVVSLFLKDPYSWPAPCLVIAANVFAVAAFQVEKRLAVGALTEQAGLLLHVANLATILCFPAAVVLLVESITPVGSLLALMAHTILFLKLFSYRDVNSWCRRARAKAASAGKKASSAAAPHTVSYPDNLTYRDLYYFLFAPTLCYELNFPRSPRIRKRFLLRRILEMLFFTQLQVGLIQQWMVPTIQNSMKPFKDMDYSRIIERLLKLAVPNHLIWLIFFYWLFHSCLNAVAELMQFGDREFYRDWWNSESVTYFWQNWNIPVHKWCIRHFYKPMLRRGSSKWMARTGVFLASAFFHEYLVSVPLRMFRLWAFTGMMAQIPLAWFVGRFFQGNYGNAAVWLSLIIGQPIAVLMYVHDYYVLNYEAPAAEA
Outline: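 Radiolabelled triglyceride formation was measured: heptane extracts were scintillation-counted after a 10-min, 37 °C reaction stopped with alkaline ethanol. Enzyme was human DGAT1 in baculovirus-infected Sf9 microsomal membranes; substrates were 14C oleoyl-CoA plus dioleoylglycerol. Runs were duplicated, and inhibition (%) was related to nM compound concentration.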

[2] = target: DGAT2 (Homo sapiens, UniProt Q96PD7); conditions: cited from earlier work
DGAT2, sequence (Q96PD7 whole entry, species assumed): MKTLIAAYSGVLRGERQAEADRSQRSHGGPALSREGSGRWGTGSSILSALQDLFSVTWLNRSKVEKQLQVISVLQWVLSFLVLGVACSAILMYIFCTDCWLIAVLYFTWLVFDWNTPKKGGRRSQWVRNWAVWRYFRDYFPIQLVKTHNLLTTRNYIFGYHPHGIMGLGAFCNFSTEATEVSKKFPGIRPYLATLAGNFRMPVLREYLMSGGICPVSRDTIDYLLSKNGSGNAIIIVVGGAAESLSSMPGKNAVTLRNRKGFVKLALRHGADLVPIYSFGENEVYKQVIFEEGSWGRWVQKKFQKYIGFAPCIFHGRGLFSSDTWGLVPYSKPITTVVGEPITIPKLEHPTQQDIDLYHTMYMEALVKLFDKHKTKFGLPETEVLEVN

[3] = test system: DGAT1 mediated retinyl-ester formation in Caco-2 cells; conditions: cited from earlier work

Row | Compound | inhibition at 1 µM [1] | activity against DGAT2 [2] | block of DGAT1 mediated retinyl-ester formation [3]
1 | CC(C)(N)C1CCC(c2ncc(-c3ccc(NC(=O)Nc4cc(F)c(F)cc4F)cc3)s2)CC1 (centres unmarked) [Example 587, 1-(4-(2-(4-(2-Aminopropan-2-yl)cyclohexyl)thiazol-5-yl)phenyl)-3-(2,4,5-trifluorophenyl)urea] | > 50% | – | –
2 | CC(C)(N)C1CCC(c2ncc(-c3ccc(NC(=O)Nc4ccc(F)cc4F)cc3)s2)CC1 (centres unmarked) [Example 589, 1-(4-(2-(4-(2-Aminopropan-2-yl)cyclohexyl)thiazol-5-yl)phenyl)-3-(2,4-difluorophenyl)urea] | > 50% | – | –
3 | CC(C)(N)CC1CCC(c2ncc(-c3ccc(NC(=O)Nc4cc(F)c(F)cc4F)cc3)s2)CC1 (centres unmarked) [Example 591, 1-(4-(2-(4-(2-Amino-2-methylpropyl)cyclohexyl)thiazol-5-yl)phenyl)-3-(2,4,5-trifluorophenyl)urea] | > 50% | – | –
4 | CC(C)C(NC(=O)c1ccc(-c2ccc(Nc3nc4ccc(F)cc4s3)cc2)cc1)C(=O)O (centres unmarked) [XP620, 2-(4′-(6-fluorobenzo[d]thiazol-2-ylamino)biphenyl-4-ylcarboxamido)-3-methylbutanoic acid] | – | no activity | able to block
